Results: PubChem BioAssay AID330 (DTP/NCI, 2004)
Values joined by “and” are separate entries in the source; they are usually repeats but may differ in a detail not shown here. Identical values can stand only once. Toxic doses and inconclusive results are not listed. How the source made its calls: active means survival T/C of 150% or more; inactive means T/C below 125% in these data.

Tested on: P388 leukemia ip, CD2F1 mice, survival T/C
Experiment: NCI In Vivo Anticancer Drug Screen. Data for tumor model P388 Leukemia (intraperitoneal) in CD2F1 (CDF1) mice
Conditions: endpoint: median survival time, higher = longer survival
Method in brief: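 Mice carrying the transplanted tumor received test compound or vehicle. Survival was recorded in each group, and the value is the treated-group measurement divided by that of the vehicle-treated control group.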

[1] = dose: 50.0 mg/kg/injection, schedule: Q01DX009 (ip), vehicle: Klucel (hydroxypropylcellulose) (HPC)
[2] = dose: 100.0 mg/kg/injection, schedule: Q01DX009 (ip), vehicle: Klucel (hydroxypropylcellulose) (HPC)
[3] = dose: 200.0 mg/kg/injection, schedule: Q01DX009 (ip), vehicle: Klucel (hydroxypropylcellulose) (HPC)
[4] = dose: 100.0 mg/kg/injection, schedule: Q01DX009 (ip), vehicle: saline with Tween-80
[5] = dose: 200.0 mg/kg/injection, schedule: Q01DX009 (ip), vehicle: saline with Tween-80
[6] = dose: 400.0 mg/kg/injection, schedule: Q01DX009 (ip), vehicle: saline with Tween-80
[7] = dose: 50.0 mg/kg/injection, schedule: Q01DX009 (ip), vehicle: saline
[8] = dose: 100.0 mg/kg/injection, schedule: Q01DX009 (ip), vehicle: saline
[9] = dose: 200.0 mg/kg/injection, schedule: Q01DX009 (ip), vehicle: saline
[10] = dose: 50.0 mg/kg/injection, schedule: Q04DX003 (ip), vehicle: saline with Tween-80
[11] = dose: 100.0 mg/kg/injection, schedule: Q04DX003 (ip), vehicle: saline with Tween-80
[12] = dose: 200.0 mg/kg/injection, schedule: Q04DX003 (ip), vehicle: saline with Tween-80
[13] = dose: 12.5 mg/kg/injection, schedule: Q04DX002 (ip), vehicle: saline
[14] = dose: 25.0 mg/kg/injection, schedule: Q04DX002 (ip), vehicle: saline
[15] = dose: 50.0 mg/kg/injection, schedule: Q01DX005 (ip), vehicle: Klucel (hydroxypropylcellulose) (HPC)
[16] = dose: 50.0 mg/kg/injection, schedule: Q01DX009 (ip), vehicle: saline with Tween-80
[17] = dose: 25.0 mg/kg/injection, schedule: Q01DX009 (ip), vehicle: saline with Tween-80

Measured: T/C

Cc1cccc(-c2cc3cccnc3nc2NN=O)c1C
inactive: dose: 3.12 mg/kg/injection, schedule: Q01DX009 (ip), vehicle: water 106 % of control | dose: 6.25 mg/kg/injection, schedule: Q01DX009 (ip), vehicle: water 105 % of control and 122 % of control | dose: 12.5 mg/kg/injection, schedule: Q01DX009 (ip), vehicle: water 111 % of control | dose: 50.0 mg/kg/injection, schedule: Q01DX009 (ip), vehicle: water 106 % of control and 121 % of control | dose: 100.0 mg/kg/injection, schedule: Q01DX009 (ip), vehicle: water 93 % of control

COc1ccc(NC(=O)CCC(=O)C(C)C(=O)c2ccccc2)cc1 (stereo not drawn)
inactive: dose: 60.0 mg/kg/injection, schedule: Q01DX005 (ip), vehicle: saline with Tween-80 109 % of control | dose: 120.0 mg/kg/injection, schedule: Q01DX005 (ip), vehicle: saline with Tween-80 114 % of control | dose: 240.0 mg/kg/injection, schedule: Q01DX005 (ip), vehicle: saline with Tween-80 120 % of control

CSc1nc2ccc(NC(=O)/C=N/O)cc2s1
inactive: [1] 91 % of control | [2] 92 % of control | [3] 87 % of control and 90 % of control

c1ccc(Cc2ccccn2)nc1
inactive: [4] 104 % of control | [5] 104 % of control | [6] 95 % of control

COC1=NO[C@@H]2C=CO[C@H]12
inactive: dose: 50.0 mg/kg/injection, schedule: Q01DX005 (ip), vehicle: saline with Tween-80 105 % of control | dose: 100.0 mg/kg/injection, schedule: Q01DX005 (ip), vehicle: saline with Tween-80 100 % of control | dose: 200.0 mg/kg/injection, schedule: Q01DX005 (ip), vehicle: saline with Tween-80 93 % of control

CC1=CCCC(C)(C)C1/C=C(/C#N)C(=O)N=C(N)N (stereo not drawn)
inactive: [7] 99 % of control | [8] 97 % of control | [9] 99 % of control

CC(C)COC(CN(C)C)C(Cl)(Cl)Cl (stereo not drawn)
inactive: [7] 107 % of control | [8] 100 % of control | [9] 116 % of control

c1ccc2c(c1)nc1snc(-n3ccnc3)n12
inactive: [10] 103 % of control | [11] 111 % of control | [12] 90 % of control

Clc1cc2[nH]cnc2c(Cl)n1
inactive: dose: 6.25 mg/kg/injection, schedule: Q04DX002 (ip), vehicle: saline 102 % of control | [13] 102 % of control | [14] 103 % of control

COc1ccc2c3c([nH]c2c1)[C@H](CC(C)(C)O)N1C(=O)[C@@H]2CCCN2C(=O)[C@]1(O)[C@H]3O
inactive: dose: 6.25 mg/kg/injection, schedule: Q01DX005 (ip), vehicle: Klucel (hydroxypropylcellulose) (HPC) 100 % of control | dose: 12.5 mg/kg/injection, schedule: Q01DX005 (ip), vehicle: Klucel (hydroxypropylcellulose) (HPC) 105 % of control | dose: 25.0 mg/kg/injection, schedule: Q01DX005 (ip), vehicle: Klucel (hydroxypropylcellulose) (HPC) 108 % of control | [15] 116 % of control

On1cnc(=S)c2[nH]cnc21
inactive: [4] 90 % of control | dose: 100.0 mg/kg/injection, schedule: Q04DX003 (ip), vehicle: saline sonified 100 % of control | [5] 100 % of control | dose: 200.0 mg/kg/injection, schedule: Q04DX003 (ip), vehicle: saline sonified 100 % of control | [6] 109 % of control | dose: 400.0 mg/kg/injection, schedule: Q04DX003 (ip), vehicle: saline sonified 90 % of control

NNC(=O)CCC(N)C(=O)O (stereo not drawn)
inactive: dose: 50.0 mg/kg/injection, schedule: Q01DX009 (ip), vehicle: saline sonified 100 % of control | [10] 95 % of control | dose: 100.0 mg/kg/injection, schedule: Q01DX009 (ip), vehicle: saline sonified 113 % of control | [11] 90 % of control | [12] 109 % of control

O/N=C1\CCCCC1C(O)c1c(Cl)cccc1Cl (stereo not drawn)
inactive: [16] 102 % of control | [4] 103 % of control | [5] 96 % of control

CCN(CC)CCCC(C)Nc1c(C)cnc2cc(Cl)ccc12 (stereo not drawn)
inactive: dose: 50.0 mg/kg/injection, schedule: Q01DX005 (ip), vehicle: saline 98 % of control | dose: 100.0 mg/kg/injection, schedule: Q01DX005 (ip), vehicle: saline 108 % of control

COc1ccc(OC)c2c(=O)c(C)c(C(=O)O)[nH]c12
inactive: dose: 100.0 mg/kg/injection, schedule: Q01DX001 (ip), vehicle: alkali diluted with saline 103 % of control | dose: 200.0 mg/kg/injection, schedule: Q01DX001 (ip), vehicle: alkali diluted with saline 100 % of control | dose: 400.0 mg/kg/injection, schedule: Q01DX001 (ip), vehicle: alkali diluted with saline 98 % of control

Cn1c(=O)c2[nH]c(C3CCCC3)nc2n(C)c1=O
inactive: dose: 3.13 mg/kg/injection, schedule: Q01DX009 (ip), vehicle: saline with Tween-80 94 % of control | dose: 6.25 mg/kg/injection, schedule: Q01DX009 (ip), vehicle: saline with Tween-80 103 % of control | dose: 12.5 mg/kg/injection, schedule: Q01DX009 (ip), vehicle: saline with Tween-80 103 % of control | [17] 92 % of control

COc1ccc(CC[n+]2cccc(C(=O)c3ccccc3)c2)cc1OC
inactive: [13] 97 % of control | [14] 105 % of control | dose: 50.0 mg/kg/injection, schedule: Q04DX002 (ip), vehicle: saline 101 % of control

CC(Br)C(=O)Nc1ncc([N+](=O)[O-])s1 (stereo not drawn)
inactive: [8] 95 % of control | [9] 100 % of control

Cc1ccc(S(=O)(=O)Sc2nnnn2C)cc1
inactive: [1] 106 % of control | [2] 97 % of control

CCCCCCCCCCCC1C(C#N)C(=O)NC(=O)C1C#N (stereo not drawn)
inactive: [1] 103 % of control | [2] 94 % of control | [3] 100 % of control

CN(C)CCCNc1nc2ccccc2c2ccnn12
inactive: dose: 5.5 mg/kg/injection, schedule: Q01DX009 (ip), vehicle: saline 109 % of control | dose: 11.0 mg/kg/injection, schedule: Q01DX009 (ip), vehicle: saline 100 % of control | dose: 22.0 mg/kg/injection, schedule: Q01DX009 (ip), vehicle: saline 100 % of control

C/C(=C1/N=C(c2ccccc2)OC1=O)c1cccs1
inactive: [15] 106 % of control | dose: 100.0 mg/kg/injection, schedule: Q01DX005 (ip), vehicle: Klucel (hydroxypropylcellulose) (HPC) 100 % of control | dose: 200.0 mg/kg/injection, schedule: Q01DX005 (ip), vehicle: Klucel (hydroxypropylcellulose) (HPC) 96 % of control

CC(C)(C)N(OC(=O)c1ccc([N+](=O)[O-])cc1)c1ccccc1
inactive: [17] 98 % of control | [16] 97 % of control | [4] 95 % of control

OCC(O)C(O)C(O)C(/C=N\Nc1ccccc1)=N/Nc1ccccc1 (stereo not drawn)
inactive: dose: 100.0 mg/kg/injection, schedule: Q04DX002 (ip), vehicle: saline 100 % of control | dose: 200.0 mg/kg/injection, schedule: Q04DX002 (ip), vehicle: saline 97 % of control | dose: 400.0 mg/kg/injection, schedule: Q04DX002 (ip), vehicle: saline 102 % of control
